Measurements published in US20240199535A1, “DEUTERATED DHODH INHIBITORS” (priority 2021, published 2024).
pEC50: −log10 of the molar value.

Legend:
in vivo [1] = settings: Han Wistar, rat
Experimental: Rats are provided with a catheter in the jugular vein (2-3 days prior to blood sampling). At each designated time point (0, 1, 2, 4, 8 and 24 h after dosing), 100 μL blood were collected into Li-heparin tubes, stored on ice until centrifugation (10 minutes at 3000 g, 4° C.) and plasma was prepared within 45 min after collection, frozen at −20° C. and stored at this temperature until processed for LC-MS analysis.

in vivo [2] = settings: CC7BL/6J, mouse, po, 5 mg/kg
Experimental: The pharmacokinetics of the compounds of the present invention was evaluated in 3 male and 3 female mice (CC7BL/6J, 8 week old) after oral cassette dosing. Dose was 5 mg/kg, application volume was 5 mL/kg and vehicle was 5% Solutol, 95% NaCl solution (at 0.9% saline concentration). At each designated time point (0, 0.25, 0.5, 1, 2, 4, 8 h after dosing), 20 μL whole blood were collected from the tail vein into Li-heparin tubes, frozen on dry ice within 1-2 minutes of sampling and stored at −20° C. until processed for LC-MS analysis.

in vitro [3] = settings: male, rat, microsomes
in vitro [4] = settings: human, microsomes
SARS-CoV-2 = experiment: Antiviral activity on SARS-CoV-2, viral replication (YFP) assay; format: cell-based; settings: Severe acute respiratory syndrome coronavirus 2, read-out: EC50 range

For `COc1cccc(-c2ccc(NC(=O)C3=C(C(=O)O)CCC3)c(F)c2)c1` [Example C26, vidofludimus, reference compound], which “% AUCextra” value (in vivo [1]; female, iv, 1 mg/kg) is on record?
The value was 12%.

What about the AUC(0-inf) (in vivo [1]; female, iv, 1 mg/kg) of the same molecule?
The AUC(0-inf) was 82.9 µg·h/mL.

What about the AUC(0-t) (in vivo [1]; female, iv, 1 mg/kg) of the same molecule?
Its AUC(0-t) is 68.6 µg·h/mL.

And the C0 (in vivo [1]; female, iv, 1 mg/kg)?
The C0 was 8130 ng/mL.

What about the Cz (in vivo [1]; female, iv, 1 mg/kg) of the same molecule?
Its Cz is 939 ng/mL.

What about the Vz/f (in vivo [1]; female, iv, 1 mg/kg) of the same molecule?
The Vz/f was 16 mL/kg.

What about the t1/2z (in vivo [1]; female, iv, 1 mg/kg) of the same molecule?
The t1/2z was 9.7 h.

What about the tz (in vivo [1]; female, iv, 1 mg/kg) of the same molecule?
The tz was 24 h.

And the bioavailability (in vivo [1]; female, po)?
The bioavailability was 73.8%.

What about the “% AUCextra” value (in vivo [1]; female, po, 5 mg/kg) of the same molecule?
Its value is 17%.

What about the AUC(0-inf) (in vivo [1]; female, po, 5 mg/kg) of the same molecule?
Its AUC(0-inf) is 297 µg·h/mL.

And the AUC(0-t) (in vivo [1]; female, po, 5 mg/kg)?
The AUC(0-t) was 253 µg·h/mL.

And the CL/F (in vivo [1]; female, po, 5 mg/kg)?
The CL/F was 3.7 mL/min/kg.

What about the Cmax (in vivo [1]; female, po, 5 mg/kg) of the same molecule?
The Cmax was 21300 ng/mL.

And the Cz (in vivo [1]; female, po, 5 mg/kg)?
The Cz was 3620 ng/mL.

What about the Tmax (in vivo [1]; female, po, 5 mg/kg) of the same molecule?
The Tmax was 2 h.

And the Vd/F (in vivo [1]; female, po, 5 mg/kg)?
The Vd/F was 0.016 L/kg.

And the t1/2z (in vivo [1]; female, po, 5 mg/kg)?
The t1/2z was 9.1 h.

What about the tz (in vivo [1]; female, po, 5 mg/kg) of the same molecule?
The tz was 24 h.

And the “% AUCextra” value (in vivo [1]; male, iv, 1 mg/kg)?
Its value is 22%.

What about the AUC(0-inf) (in vivo [1]; male, iv, 1 mg/kg) of the same molecule?
Its AUC(0-inf) is 47.9 µg·h/mL.

And the AUC(0-t) (in vivo [1]; male, iv, 1 mg/kg)?
Its AUC(0-t) is 43.2 µg·h/mL.

And the C0 (in vivo [1]; male, iv, 1 mg/kg)?
Its C0 is 5790 ng/mL.

And the Cz (in vivo [1]; male, iv, 1 mg/kg)?
Its Cz is 421 ng/mL.

And the Vz/f (in vivo [1]; male, iv, 1 mg/kg)?
The Vz/f was 9 mL/kg.

What about the t1/2z (in vivo [1]; male, iv, 1 mg/kg) of the same molecule?
The t1/2z was 7.3 h.

And the tz (in vivo [1]; male, iv, 1 mg/kg)?
The tz was 24 h.

What about the bioavailability (in vivo [1]; male, po) of the same molecule?
The bioavailability was 92.7%.

And the “% AUCextra” value (in vivo [1]; male, po, 5 mg/kg)?
Its value is 25%.

And the AUC(0-inf) (in vivo [1]; male, po, 5 mg/kg)?
The AUC(0-inf) was 206 µg·h/mL.

What about the AUC(0-t) (in vivo [1]; male, po, 5 mg/kg) of the same molecule?
The AUC(0-t) was 200 µg·h/mL.

What about the CL/F (in vivo [1]; male, po, 5 mg/kg) of the same molecule?
Its CL/F is 3.72 mL/min/kg.

What about the Cmax (in vivo [1]; male, po, 5 mg/kg) of the same molecule?
The Cmax was 14900 ng/mL.

What about the Cz (in vivo [1]; male, po, 5 mg/kg) of the same molecule?
The Cz was 1540 ng/mL.

What about the Tmax (in vivo [1]; male, po, 5 mg/kg) of the same molecule?
Its Tmax is 2 h.

And the Vd/F (in vivo [1]; male, po, 5 mg/kg)?
Its Vd/F is 0.007 L/kg.

And the t1/2z (in vivo [1]; male, po, 5 mg/kg)?
The t1/2z was 6.4 h.

What about the tz (in vivo [1]; male, po, 5 mg/kg) of the same molecule?
The tz was 24 h.

What about the AUC (in vivo [2]; female) of the same molecule?
The AUC was 1970 ng·h/mL.

And the Cmax (in vivo [2]; female)?
Its Cmax is 745 ng/mL.

What about the half-life (in vivo [2]; female) of the same molecule?
Its half-life is 102 min.

And the AUC (in vivo [2]; male)?
Its AUC is 1620 ng·h/mL.

And the Cmax (in vivo [2]; male)?
Its Cmax is 789 ng/mL.

And the half-life (in vivo [2]; male)?
The half-life was 102 min.

What about the microsomal CLint (in vitro [3]) of the same molecule?
The microsomal CLint was 8.48 µL/min/mg.

And the microsomal CLint (in vitro [4]; both)?
Its microsomal CLint is 2.27 µL/min/mg.

And the microsomal CLint (in vitro [4]; female)?
Its microsomal CLint is 6.58 µL/min/mg.

What about the microsomal CLint (in vitro [4]; male) of the same molecule?
Its microsomal CLint is 12.6 µL/min/mg.

With `[2H]C([2H])([2H])Oc1nc(-c2cc(F)c(NC(=O)C3=C(C(=O)O)CCC3)c(F)c2)cs1` [1/8] as the molecule, how does the pEC50 (SARS-CoV-2) read?
The pEC50 was 4.30 to 4.60.

With `[2H]C([2H])([2H])Oc1cccc(-c2ccc(NC(=O)C3=C(C(=O)O)CCC3)c3c2CCC3)c1` [Example 12/1] as the molecule, how does the pEC50 (SARS-CoV-2) read?
Its pEC50 is greater than 5.00.

With `[2H]C([2H])([2H])Oc1cccc(-c2ccc(NC(=O)C3=C(C(=O)O)CCC3)c3cnccc23)c1` [12/3] as the molecule, how does the pEC50 (SARS-CoV-2) read?
Its pEC50 is 4.30 to 4.60.

With `[2H]c1cc([2H])c(-c2c(F)c(F)c(NC(=O)C3=C(C(=O)O)CCC3)c(F)c2F)c([2H])c1OC(F)(F)F` [Example 3, 2-((2,3,5,6-Tetrafluoro-3′-(trifluoromethoxy)-[1,1′-biphenyl]-4-yl-2′,4′,6′-d3)carbamoyl)cyclopent-1-ene-1-carboxylic Acid] as the molecule, how does the pEC50 (SARS-CoV-2) read?
Its pEC50 is greater than 5.00.

With `[2H]C([2H])([2H])Oc1cccc(-c2ccc(NC(=O)C3=C(C(=O)O)CCC3)c3ccccc23)c1` [12/4] as the molecule, how does the pEC50 (SARS-CoV-2) read?
Its pEC50 is 4.60 to 5.00.

With `[2H]C([2H])([2H])Oc1cccc(-c2cc(F)c(NC(=O)C3=C(C(=O)O)COC3)c(F)c2)c1` [Example 11, 4-((3,5-Difluoro-3′-(methoxy-d3)-[1,1′-biphenyl]-4-yl)carbamoyl)-2,5-dihydrofuran-3-carboxylic Acid] as the molecule, how does the pEC50 (SARS-CoV-2) read?
The pEC50 was less than 4.30.

With `[2H]C([2H])([2H])Oc1cccc(-c2cc(F)c(NC(=O)C3=C(C(=O)O)CSC3)c(F)c2)c1` [Example 10, 4-((3,5-Difluoro-3′-(methoxy-d3)-[1,1′-biphenyl]-4-yl)carbamoyl)-2,5-dihydro-thiophene-3-carboxylic Acid] as the molecule, how does the pEC50 (SARS-CoV-2) read?
The pEC50 was 4.60 to 5.00.

With `[2H]C([2H])([2H])Oc1cccc(-c2cnc(NC(=O)C3=C(C(=O)O)CCC3)c(F)c2)c1` [Example 12, 2-((3-Fluoro-5-(3-(methoxy-d3)phenyl)pyridin-2-yl)carbamoyl)cyclopent-1-ene-1-carboxylic Acid] as the molecule, how does the pEC50 (SARS-CoV-2) read?
Its pEC50 is greater than 5.00.
